Experimental data as given in the NIST ThermoML archive (doi:10.1021/acs.jced.5b00385).
Numbers after ± are expanded uncertainties.

Settings: Liquid, Vibrating tube method

FCC(F)(F)F [1,1,1,2-tetrafluoroethane]
Settings	mass density [kg/m3]
283.46 K, 1000 kPa	1262.57 ± 0.38
283.46 K, 5000 kPa	1279.58 ± 0.4
283.47 K, 10000 kPa	1298.12 ± 0.44
283.47 K, 20000 kPa	1329.18 ± 0.54
283.47 K, 40000 kPa	1377.11 ± 0.84
283.47 K, 60000 kPa	1414.44 ± 1.2
283.47 K, 80000 kPa	1445.46 ± 1.7
303.37 K, 10000 kPa	1236.85 ± 0.42
303.37 K, 20000 kPa	1275.77 ± 0.5
303.38 K, 1000 kPa	1188.07 ± 0.37
303.38 K, 5000 kPa	1212.13 ± 0.38
303.38 K, 40000 kPa	1332.36 ± 0.78
303.38 K, 60000 kPa	1374.64 ± 1.1
303.38 K, 80000 kPa	1408.98 ± 1.7
323.15 K, 3000 kPa	1119.19 ± 0.37
323.16 K, 5000 kPa	1136.38 ± 0.37
323.16 K, 10000 kPa	1170.84 ± 0.4
323.16 K, 20000 kPa	1220.65 ± 0.48
323.16 K, 40000 kPa	1287.71 ± 0.75
323.16 K, 60000 kPa	1335.49 ± 1.1
323.16 K, 80000 kPa	1373.39 ± 1.7
342.97 K, 3000 kPa	1014.76 ± 0.36
342.97 K, 5000 kPa	1045.25 ± 0.36
342.98 K, 10000 kPa	1097.42 ± 0.39
342.98 K, 20000 kPa	1162.91 ± 0.46
342.98 K, 40000 kPa	1242.75 ± 0.73
342.98 K, 80000 kPa	1338.34 ± 1.7
342.99 K, 60000 kPa	1296.65 ± 1.1
362.68 K, 5000 kPa	922.4 ± 0.36
362.68 K, 10000 kPa	1013.83 ± 0.4
362.68 K, 20000 kPa	1102.6 ± 0.47
362.68 K, 40000 kPa	1197.86 ± 0.73
362.68 K, 60000 kPa	1258.47 ± 1.1
362.68 K, 80000 kPa	1304.15 ± 1.8

CCCCC(CC)COC(C)=O (stereo not drawn) [2-ethylhexyl acetate]
Settings	mass density [kg/m3]
283.45 K, 80000 kPa	925.84 ± 1
283.45 K, 90000 kPa	930.33 ± 1.1
283.45 K, 100000 kPa	934.63 ± 1.1
283.46 K, 100 kPa	880.38 ± 0.91
283.46 K, 1000 kPa	881.05 ± 0.91
283.46 K, 40000 kPa	905.65 ± 0.97
283.46 K, 50000 kPa	911.06 ± 0.99
283.46 K, 60000 kPa	916.18 ± 1
283.46 K, 70000 kPa	921.22 ± 1
283.47 K, 3000 kPa	882.48 ± 0.91
283.47 K, 5000 kPa	883.9 ± 0.91
283.47 K, 30000 kPa	899.95 ± 0.95
283.48 K, 10000 kPa	887.37 ± 0.92
283.48 K, 15000 kPa	890.63 ± 0.93
283.48 K, 20000 kPa	893.87 ± 0.94
283.48 K, 25000 kPa	896.91 ± 0.95
293.44 K, 1000 kPa	872.61 ± 0.9
293.44 K, 3000 kPa	874.12 ± 0.9
293.45 K, 5000 kPa	875.6 ± 0.91
293.45 K, 10000 kPa	879.24 ± 0.92
293.45 K, 15000 kPa	882.73 ± 0.92
293.45 K, 20000 kPa	886.08 ± 0.93
293.45 K, 25000 kPa	889.32 ± 0.94
293.45 K, 30000 kPa	892.46 ± 0.95
293.45 K, 40000 kPa	898.43 ± 0.97
293.45 K, 60000 kPa	909.42 ± 1
293.45 K, 70000 kPa	914.46 ± 1
293.45 K, 80000 kPa	919.33 ± 1
293.45 K, 100000 kPa	928.38 ± 1.1
293.46 K, 100 kPa	871.89 ± 0.9
293.46 K, 50000 kPa	904.07 ± 0.99
293.46 K, 90000 kPa	923.91 ± 1.1
303.38 K, 1000 kPa	863.7 ± 0.89
303.39 K, 3000 kPa	865.32 ± 0.89
303.39 K, 15000 kPa	874.36 ± 0.92
303.39 K, 40000 kPa	890.82 ± 0.97
303.4 K, 5000 kPa	866.89 ± 0.9
303.4 K, 10000 kPa	870.7 ± 0.91
303.4 K, 20000 kPa	877.88 ± 0.93
303.4 K, 25000 kPa	881.31 ± 0.94
303.4 K, 30000 kPa	884.55 ± 0.95
303.4 K, 50000 kPa	896.67 ± 0.98
303.4 K, 60000 kPa	902.22 ± 1
303.4 K, 70000 kPa	907.5 ± 1
303.4 K, 80000 kPa	912.5 ± 1
303.4 K, 90000 kPa	917.28 ± 1.1
303.41 K, 100 kPa	862.94 ± 0.89
303.41 K, 100000 kPa	921.87 ± 1.1
313.34 K, 100 kPa	854.53 ± 0.88
313.34 K, 1000 kPa	855.28 ± 0.88
313.34 K, 3000 kPa	857.04 ± 0.89
313.34 K, 5000 kPa	858.73 ± 0.89
313.34 K, 10000 kPa	862.77 ± 0.9
313.34 K, 15000 kPa	866.66 ± 0.91
313.34 K, 20000 kPa	870.34 ± 0.92
313.34 K, 25000 kPa	873.92 ± 0.93
313.34 K, 30000 kPa	877.34 ± 0.94
313.34 K, 40000 kPa	883.88 ± 0.96
313.34 K, 50000 kPa	889.98 ± 0.98
313.34 K, 60000 kPa	895.7 ± 1
313.34 K, 70000 kPa	901.14 ± 1
313.34 K, 80000 kPa	906.27 ± 1.1
313.34 K, 100000 kPa	915.93 ± 1.1
313.35 K, 90000 kPa	911.19 ± 1.1
323.15 K, 100 kPa	845.74 ± 0.87
323.15 K, 50000 kPa	882.8 ± 0.98
323.15 K, 60000 kPa	888.76 ± 1
323.15 K, 70000 kPa	894.49 ± 1
323.15 K, 80000 kPa	899.83 ± 1.1
323.15 K, 90000 kPa	904.91 ± 1.1
323.15 K, 100000 kPa	909.78 ± 1.1
323.16 K, 1000 kPa	846.56 ± 0.87
323.16 K, 3000 kPa	848.36 ± 0.88
323.16 K, 5000 kPa	850.14 ± 0.88
323.16 K, 10000 kPa	854.42 ± 0.89
323.16 K, 25000 kPa	866.13 ± 0.93
323.16 K, 30000 kPa	869.71 ± 0.94
323.16 K, 40000 kPa	876.47 ± 0.96
323.17 K, 15000 kPa	858.49 ± 0.91
323.17 K, 20000 kPa	862.39 ± 0.92
332.99 K, 100 kPa	836.98 ± 0.86
333 K, 1000 kPa	837.85 ± 0.87
333 K, 3000 kPa	839.78 ± 0.87
333 K, 5000 kPa	841.66 ± 0.88
333 K, 10000 kPa	846.16 ± 0.89
333 K, 15000 kPa	850.47 ± 0.9
333 K, 20000 kPa	854.55 ± 0.91
333 K, 25000 kPa	858.45 ± 0.92
333.01 K, 30000 kPa	862.21 ± 0.93
333.01 K, 40000 kPa	869.27 ± 0.96
333.01 K, 50000 kPa	875.85 ± 0.98
333.01 K, 60000 kPa	882.02 ± 1
333.01 K, 70000 kPa	888.07 ± 1
333.01 K, 80000 kPa	893.58 ± 1.1
333.01 K, 90000 kPa	898.82 ± 1.1
333.01 K, 100000 kPa	903.81 ± 1.1
342.95 K, 100 kPa	828.32 ± 0.86
342.96 K, 1000 kPa	829.27 ± 0.86
342.96 K, 3000 kPa	831.31 ± 0.86
342.96 K, 5000 kPa	833.3 ± 0.87
342.96 K, 10000 kPa	838.06 ± 0.88
342.96 K, 15000 kPa	842.59 ± 0.89
342.96 K, 20000 kPa	846.9 ± 0.91
342.97 K, 25000 kPa	851 ± 0.92
342.97 K, 30000 kPa	854.91 ± 0.93
342.97 K, 40000 kPa	862.31 ± 0.96
342.97 K, 50000 kPa	869.15 ± 0.98
342.97 K, 60000 kPa	875.57 ± 1
342.97 K, 70000 kPa	881.64 ± 1
342.97 K, 80000 kPa	887.28 ± 1.1
342.97 K, 90000 kPa	892.73 ± 1.1
342.97 K, 100000 kPa	897.85 ± 1.1
352.78 K, 100 kPa	819.64 ± 0.85
352.79 K, 1000 kPa	820.65 ± 0.85
352.79 K, 3000 kPa	822.83 ± 0.86
352.79 K, 5000 kPa	824.93 ± 0.86
352.79 K, 10000 kPa	830 ± 0.87
352.79 K, 15000 kPa	834.75 ± 0.89
352.79 K, 20000 kPa	839.27 ± 0.9
352.79 K, 25000 kPa	843.56 ± 0.91
352.79 K, 30000 kPa	847.66 ± 0.93
352.79 K, 40000 kPa	855.34 ± 0.96
352.79 K, 50000 kPa	862.46 ± 0.98
352.79 K, 60000 kPa	869.08 ± 1
352.79 K, 70000 kPa	875.42 ± 1
352.79 K, 90000 kPa	886.84 ± 1.1
352.79 K, 100000 kPa	892.14 ± 1.1
352.8 K, 80000 kPa	881.29 ± 1.1
362.64 K, 100 kPa	810.91 ± 0.84
362.64 K, 1000 kPa	811.97 ± 0.84
362.64 K, 3000 kPa	814.28 ± 0.85
362.64 K, 5000 kPa	816.51 ± 0.85
362.64 K, 10000 kPa	821.85 ± 0.87
362.64 K, 15000 kPa	826.87 ± 0.88
362.64 K, 20000 kPa	831.61 ± 0.9
362.64 K, 25000 kPa	836.09 ± 0.91
362.64 K, 30000 kPa	840.38 ± 0.92
362.64 K, 50000 kPa	855.78 ± 0.98
362.64 K, 60000 kPa	862.65 ± 1
362.64 K, 70000 kPa	869.14 ± 1
362.64 K, 80000 kPa	875.25 ± 1.1
362.64 K, 90000 kPa	880.97 ± 1.1
362.64 K, 100000 kPa	886.45 ± 1.1
362.65 K, 40000 kPa	848.4 ± 0.95
